Data: PubChem BioAssay (NCI)
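Test compounds were applied to cells in 96-well plates for 48 hours at 5 doses. GI50: concentration for 50% inhibition of growth. TGI denotes the concentration required for complete inhibition of growth.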

Legend:
Assay in all cases: NCI-60 cell line screen, 48 h
[1] = tested on: DLD-1 colon
[2] = tested on: XF 498 CNS
[3] = tested on: RXF-631 renal

CCN(CC)CC(=N)N(CC)c1ccccc1
TGI [1]: > 100 µM
TGI [2]: > 100 µM

COc1ccc(N2C(=O)C3c4[nH]c5ccccc5c4C4CCCCC4C3C2=O)cc1 (stereo unspecified)
TGI [1]: > 100 µM

O=C1CSc2cc([N+](=O)[O-])ccc2N1
TGI [1]: > 100 µM
TGI [2]: > 100 µM
TGI [3]: > 100 µM

O=C1c2ccccc2C(=O)c2[nH]c(Cc3ccc(F)cc3)nc21
TGI [1]: 8.21 µM
TGI [2]: 31.8 µM
TGI [3]: 44.8 µM

C/C=C(/C)C(=O)O[C@H]1[C@H](O)CC(c2ccc3c(c2O)C(O)=C2C(=O)C4(OC)C(O)=C(C(N)=O)C(=O)[C@H](CC(=O)c5ccccc5O)C4CC2[C@@]3(C)OC)O[C@@H]1C (stereo partly specified)
TGI [1]: 3.85 µM

Cn1c(=O)c2/c(n(C)c1=O)=N\C=c1\c(=O)n(C)c(=O)n(C)\c1=N\C=2
TGI [1]: > 100 µM
TGI [3]: > 100 µM

O=C(/C=C\c1cccc2ccccc12)c1cccc2ccccc12
GI50 [1]: 3.43 µM
TGI [1]: 15.8 µM
GI50 [3]: 10.5 µM
TGI [3]: 26.4 µM

CC(=O)[CH-]C(=O)c1ccccc1.CC(=O)[CH-]C(=O)c1ccccc1.CC[O-].O=C1c2ccccc2C(=O)c2c1ccc(O)c2[O-].[Ti+4]
TGI [1]: > 100 µM

CC(=O)N/C(=C\c1ccc(Cc2nc3c([nH]2)C(=O)c2ccccc2C3=O)cc1)c1nc2c([nH]1)C(=O)c1ccccc1C2=O
TGI [1]: > 100 µM

O=S1Nc2c(Cl)cc(Cl)c(Cl)c2S1 (stereo unspecified)
TGI [1]: > 100 µM

C/C=N\N1C(=O)c2ccccc2C1=O
TGI [1]: > 100 µM
TGI [2]: > 100 µM
TGI [3]: > 100 µM

N#CCC(=O)N1CCCCCCC1
TGI [1]: > 100 µM

O=c1oc2ccccc2c(O)c1C(C/C(CCN1CCCC1)=N\Nc1ccccc1)c1ccccc1 (stereo unspecified)
TGI [1]: > 100 µM
TGI [2]: > 100 µM

CCc1cccc(C)c1NC(=O)CC1C(=O)Nc2ccccc2S1(=O)=O (stereo unspecified)
TGI [1]: 40.4 µM
TGI [2]: 26.2 µM
TGI [3]: 33 µM

NC(CSSCC(N)Cc1ccccc1)Cc1ccccc1 (stereo unspecified)
TGI [1]: > 100 µM
TGI [2]: 57.2 µM

COc1ccc2c(c1)OC[C@@H]1c3cc(O)c(OCc4ccccc4)cc3O[C@H]21
TGI [1]: > 100 µM
TGI [2]: 68.4 µM
TGI [3]: > 100 µM

O=C1/C(=C/c2ccc(Br)cc2)CCC/C1=C\c1ccc(Br)cc1
TGI [1]: 31.6 µM
TGI [2]: 52 µM
TGI [3]: 18.1 µM

O=C1NCCS(=O)(=O)N2CCC[C@@H]12
TGI [1]: > 100 µM
TGI [3]: > 100 µM

CC1(C)N=C(c2ccccn2)C(c2ccccn2)=NC1(C)C
TGI [1]: > 100 µM
TGI [2]: > 100 µM
TGI [3]: > 100 µM
